Laboratory results as given in ChEMBL document CHEMBL1201862, “PubChem BioAssay data set” (2004).
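All cell lines were grown in 96-well plates and treated with compound for 48 hours. GI50: concentration for 50% inhibition of growth.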 Calls of active or inactive are those of the source. Cut-off read from the data, not from the text of the source: active = GI50 up to about 1.1 µM and inactive = higher.

Key:
Assay in all cases: NCI-60 cell line screen, 48 h
[1] = tested on: SF-295
[2] = tested on: MCF7
[3] = tested on: NCI-H522
[4] = tested on: HCT-116
[5] = tested on: SK-MEL-5
[6] = tested on: PC-3
[7] = tested on: Hs-578T
[8] = tested on: T47D
[9] = tested on: NCI-H460
[10] = tested on: COLO 205
[11] = tested on: UO-31
[12] = tested on: TK-10
[13] = tested on: CAKI-1
[14] = tested on: RXF 393
[15] = tested on: SNB-19
[16] = tested on: IGROV-1
[17] = tested on: UACC-62
[18] = tested on: MOLT-4
[19] = tested on: CCRF-CEM

Measured: GI50

Cc1ccc(C2=Nc3ccccc3SC(c3cccc([N+](=O)[O-])c3)C2)cc1 (stereo not drawn)
inactive: [1] 28.4 µM | [2] 4.08 µM | [3] 9.59 µM | [4] 3.6 µM | [5] 15.4 µM | [6] 10.2 µM | [7] 14.3 µM | [8] 10.7 µM | [9] 27.9 µM | [10] 58.7 µM | [11] 5.4 µM | [12] 14.5 µM | [13] 51.4 µM | [14] 16.4 µM | [15] 26.9 µM | [16] 8.34 µM | [17] > 100 µM

COc1cc(O)ccc1C(=S)SC
inactive: [1] 60.3 µM | [2] > 100 µM | [3] 46 µM | [4] 80.9 µM | [5] 26.5 µM | [6] 47.2 µM | [7] 24.1 µM | [8] 70.3 µM | [9] 77.6 µM | [10] > 100 µM | [11] 51.6 µM | [12] 60.4 µM | [13] 56.8 µM | [14] 89.3 µM | [15] 78.2 µM | [16] 42.6 µM | [18] 20.8 µM | [17] 28.3 µM

O=C(c1ccccc1)c1ccc2c(c1)nc1n2C(c2c(F)cccc2F)SC1 (stereo not drawn)
inactive: [1] 17.9 µM | [2] 26.5 µM | [3] 34.7 µM | [4] 15 µM | [5] 12.9 µM | [6] 16.3 µM | [7] 59 µM | [8] 4.71 µM | [9] 17.1 µM | [10] 24.1 µM | [11] 11.6 µM | [12] 39.2 µM | [13] 21.1 µM | [14] 29 µM | [15] 32.1 µM | [16] 52.4 µM | [17] 15.5 µM

CC(C)(C)OC(=O)NC(Cc1ccccc1)OCc1ccccc1 (stereo not drawn)
inactive: [1] 16.6 µM | [2] 19.7 µM | [3] 11.4 µM | [4] 17.9 µM | [5] 15.5 µM | [6] 13.5 µM | [7] 23.3 µM | [8] 14.6 µM | [9] 21.3 µM | [10] 35 µM | [11] 17.1 µM | [12] 19 µM | [13] 19.6 µM | [14] 20.8 µM | [15] 19.5 µM | [16] > 10 µM | [18] 17.4 µM | [17] 15 µM

N#Cc1nc(COCc2ccccc2)oc1N
inactive: [1] > 100 µM | [2] > 100 µM | [3] 2.97 µM | [4] > 100 µM | [6] > 100 µM | [19] 17.9 µM | [7] > 100 µM | [8] > 100 µM | [10] > 100 µM | [11] > 100 µM | [12] > 100 µM | [13] > 100 µM | [14] > 100 µM | [15] > 100 µM | [16] > 100 µM | [18] > 100 µM | [17] > 100 µM

CC(=O)SSC1(Cl)C(C)(C)C(Cl)(SSC(C)=O)C1(C)C (stereo not drawn)
inactive: [1] 43.5 µM | [2] 33.6 µM | [3] 38.8 µM | [4] 44 µM | [5] 29.8 µM | [6] 41.3 µM | [19] 24 µM | [7] > 100 µM | [8] 20.8 µM | [9] 28.5 µM | [10] > 100 µM | [11] 94.8 µM | [12] 75.2 µM | [13] > 100 µM | [14] 21 µM | [15] 35 µM | [16] 51.2 µM | [17] 52.6 µM

COCN1C(=O)[C@@H]2CCCN2C(=O)c2cc(Cl)ccc21
inactive: [1] > 100 µM | [2] > 100 µM | [3] > 100 µM | [4] > 100 µM | [5] > 100 µM | [6] > 100 µM | [7] > 100 µM | [8] > 100 µM | [9] > 100 µM | [10] > 100 µM | [11] > 100 µM | [12] > 100 µM | [13] > 100 µM | [14] > 100 µM | [15] > 100 µM | [16] > 100 µM | [18] > 100 µM | [17] > 100 µM

CC(=O)OC[C@@H](OC(C)=O)[C@@H](OC(C)=O)[C@H]1OC[C@@H]2C[C@H]([C@H]1OC(C)=O)N(Cc1ccccc1)O2
inactive: [1] > 100 µM | [2] > 100 µM | [4] > 100 µM | [5] > 100 µM | [6] > 100 µM | [19] > 100 µM | [7] > 100 µM | [8] > 100 µM | [9] > 100 µM | [10] > 100 µM | [11] 61.7 µM | [12] > 100 µM | [13] > 100 µM | [14] > 100 µM | [15] > 100 µM | [16] > 100 µM | [18] > 100 µM | [17] > 100 µM

CC(C)C1CNC(=O)C2(/C=N/C(C(C)C)CNC(=O)C3(/C=N/1)CCCO3)CCCO2 (stereo not drawn)
inactive: [1] > 10 µM | [2] > 10 µM | [3] > 10 µM | [4] > 10 µM | [5] > 10 µM | [6] > 10 µM | [19] > 10 µM | [7] > 10 µM | [8] > 10 µM | [10] > 10 µM | [12] > 10 µM | [13] > 10 µM | [14] > 10 µM | [15] > 10 µM | [16] > 10 µM | [18] > 10 µM | [17] > 10 µM

CN1C(=O)C23CCCC2CC1(c1ccccc1)S3 (stereo not drawn)
inactive: [1] > 100 µM | [2] > 100 µM | [3] 91.2 µM | [4] > 100 µM | [5] > 100 µM | [6] 45.2 µM | [7] 78.9 µM | [8] 54.6 µM | [10] > 100 µM | [11] > 100 µM | [12] > 100 µM | [13] > 100 µM | [14] > 100 µM | [15] > 100 µM | [16] > 100 µM | [18] > 100 µM | [17] > 100 µM

CCCCN1C(=O)CC2[C@@H]3CCc4cc(OC)ccc4C3CC[C@]2(C)C1=O (stereo partly drawn)
inactive: [1] > 10 µM | [2] > 10 µM | [4] > 10 µM | [5] > 10 µM | [6] > 10 µM | [19] > 10 µM | [7] > 10 µM | [8] > 10 µM | [9] > 10 µM | [10] > 10 µM | [11] > 10 µM | [12] > 10 µM | [13] > 10 µM | [14] > 10 µM | [15] > 10 µM | [16] > 10 µM | [18] > 10 µM | [17] > 10 µM
